Patent publication US20240091248A1, “METHODS OF TREATING ACUTE MYELOID LEUKEMIA AND MANAGING CYTOPENIA” (GENENTECH, INC., priority 2021, published 2024)

Columns and labels:
[1] = test system: patients with acute myeloid leukemia (AML); assay: measurable residual disease (MRD) response analysis of the phase 3 study; type: in vivo, human; conditions: p<0.001
Protocol: Methods: Enrolled patients were ≥18 years and unfit for intensive chemotherapy. Patients received Ven 400 mg orally; days 1-28 and Aza 75 mg/m^2; days 1-7/28-day cycle. Bone marrow aspirate samples for multiparametric flow cytometry assessments by integrated leukemia-associated immunophenotypes and different than normal procedures were collected for central analysis (Covance Central Laboratory Services) at baseline, end of cycle 1, and every 3 cycles thereafter. Assessments were performed independent of disease responses. MRD response was defined as <1 residual blast/1000 leukocytes (<10^−3). CRc, DoR, OS, and EFS were assessed. Disease assessments were per modified International Working Group response criteria for AML.

Mcl-1 = Mcl-1 (Homo sapiens, UniProt Q07820); conditions: cited from earlier work
[2] = test system: patients with acute myeloid leukemia (AML); assay: venetoclax exposure versus overall survival in CR/CRh patients with post-remission cytopenia; type: in vivo, human; conditions: switched to 21-day dosing or remained on 28-day dosing, Cox proportional-hazards models

Sequence of Mcl-1 (Q07820 whole entry): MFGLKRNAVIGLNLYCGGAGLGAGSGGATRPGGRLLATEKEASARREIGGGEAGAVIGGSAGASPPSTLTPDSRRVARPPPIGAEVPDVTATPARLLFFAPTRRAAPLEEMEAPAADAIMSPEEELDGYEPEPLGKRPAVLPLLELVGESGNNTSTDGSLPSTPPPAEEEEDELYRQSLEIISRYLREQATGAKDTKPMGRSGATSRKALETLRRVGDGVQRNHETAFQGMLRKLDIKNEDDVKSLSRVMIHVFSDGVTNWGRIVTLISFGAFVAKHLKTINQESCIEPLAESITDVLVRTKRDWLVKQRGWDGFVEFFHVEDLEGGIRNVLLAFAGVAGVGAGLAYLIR

Row | Structure (SMILES) | rate of composite complete remission (CRc) and MRD response (MRD<10^−3) [1] | Ki (Mcl-1) | relationship between venetoclax exposure (Cavg) and overall survival [2]
1 | Nc1ncn([C@@H]2O[C@H](CO)[C@@H](O)[C@H]2O)c(=O)n1 [Aza, 4-amino-1-β-D-ribofuranosyl-s-triazin-2(1H)-one] | 7.6% |  | 
2 | CC1(C)CCC(CN2CCN(c3ccc(C(=O)NS(=O)(=O)c4ccc(NCC5CCOCC5)c([N+](=O)[O-])c4)c(Oc4cnc5[nH]ccc5c4)c3)CC2)=C(c2ccc(Cl)cc2)C1 [venetoclax, 4-(4-{[2-(4-chlorophenyl)-4,4-dimethylcyclohex-1-en-1-yl]methyl}piperazin-1-yl)-N-({3-nitro-4-[(tetrahydro-2H-pyran-4-ylmethyl)amino]phenyl}sulfonyl)-2-(1H-pyrrolo[2,3-b]pyridin5-yloxy)benzamide] |  | > 444 nM | no apparent relationship
